Source: patent US20250059174A1, “Pharmaceutical Compounds and Compositions as C-Kit Kinase Inhibitors” (Enanta Pharmaceuticals, Inc., priority 2023, published 2025)

Each molecule was assayed against Recombinant human c-KIT kinase (Homo sapiens (Human), UniProt P10721) (assay: c-KIT kinase chemiluminescence assay (ADP-Glo)). Settings: ATP 50 μM.
Type: biochemical
In short: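 ADP formed by c-KIT on polyEY over 2 h at RT (after 30 min enzyme preincubation; Tris pH 7.5, MgCl2, BSA, DTT buffer) was detected by ADP-Glo luminescence. IC50 and Hill slope were fitted to control-normalized activity across compound concentrations.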

Chain of Recombinant human c-KIT kinase (P10721 26-976): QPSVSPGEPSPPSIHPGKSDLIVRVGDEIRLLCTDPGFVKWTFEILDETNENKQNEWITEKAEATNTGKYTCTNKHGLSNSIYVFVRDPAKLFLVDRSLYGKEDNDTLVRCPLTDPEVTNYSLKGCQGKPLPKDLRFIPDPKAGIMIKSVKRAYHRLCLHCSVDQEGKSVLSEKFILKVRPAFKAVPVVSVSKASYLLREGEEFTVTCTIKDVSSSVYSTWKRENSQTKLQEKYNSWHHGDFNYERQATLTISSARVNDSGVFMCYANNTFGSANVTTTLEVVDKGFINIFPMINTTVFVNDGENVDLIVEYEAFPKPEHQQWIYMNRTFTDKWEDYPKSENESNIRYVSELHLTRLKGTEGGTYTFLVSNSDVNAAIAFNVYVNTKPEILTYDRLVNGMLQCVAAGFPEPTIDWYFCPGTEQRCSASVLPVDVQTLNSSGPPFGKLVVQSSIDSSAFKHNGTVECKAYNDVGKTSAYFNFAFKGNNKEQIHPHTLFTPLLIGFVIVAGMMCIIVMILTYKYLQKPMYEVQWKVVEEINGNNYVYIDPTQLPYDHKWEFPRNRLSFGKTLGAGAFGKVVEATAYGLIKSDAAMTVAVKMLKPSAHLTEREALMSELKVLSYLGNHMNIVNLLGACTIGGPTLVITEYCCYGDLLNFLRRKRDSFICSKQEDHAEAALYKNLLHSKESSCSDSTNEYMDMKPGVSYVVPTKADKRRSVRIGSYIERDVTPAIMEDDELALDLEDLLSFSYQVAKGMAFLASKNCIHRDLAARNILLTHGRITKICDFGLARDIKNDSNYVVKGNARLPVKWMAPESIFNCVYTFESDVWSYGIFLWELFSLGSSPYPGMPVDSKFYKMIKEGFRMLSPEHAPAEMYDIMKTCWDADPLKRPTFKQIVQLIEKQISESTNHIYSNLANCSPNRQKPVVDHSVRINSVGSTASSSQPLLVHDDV

Row | Structure (SMILES) | IC50
1 | Cc1ccc(-c2noc([C@H]3C[C@@H]3F)n2)cc1NC(=O)c1cnc(N2CCC3(CCC(=O)N3)CC2)s1 [Example 98-8] | > 1 µM
2 | Cc1ccc(-c2noc([C@H]3C[C@@H]3F)n2)cc1NC(=O)c1cnn2ccc(-c3c(C)nc(N4CC5(COC5)C4)nc3C)cc12 [Example 171-14] | 0.1 to 1 µM
3 | Cc1ccc(-c2noc([C@H]3C[C@@H]3F)n2)cc1NC(=O)c1cnn2cc(F)c(Br)cc12 [Example 62] | 0.1 to 1 µM
4 | Cc1ccc(-c2ncc(OC(F)F)cn2)cc1NC(=O)c1cnn2ccc(-c3c(C)nc(N)nc3C)cc12 [Example 366] | > 1 µM
5 | Cc1ccc(-c2noc([C@H]3C[C@@H]3F)n2)cc1NC(=O)c1cnc(C)n1C [Example 4] | > 1 µM
6 | Cc1ccc(-c2noc([C@H]3C[C@@H]3F)n2)cc1NC(=O)c1cnn2ccc(N3CC[C@H](NC(=O)OC(C)(C)C)C3)cc12 [Example 193] | 0.1 to 1 µM
7 | Cc1ccc(-c2noc([C@H]3C[C@@H]3F)n2)cc1NC(=O)c1cnn2ccc(N3CCN(C(=O)C4CC4)[C@H](C)C3)cc12 [Example 241-5] | < 0.1 µM
8 | Cc1ccc(-c2nc3n(n2)CCN(C(=O)OC(C)(C)C)C3)cc1NC(=O)c1cnn2ccc(N3CC4(C3)CC(O)(C(F)F)C4)cc12 [Example 322] | < 0.1 µM
9 | Cc1ncc(-c2noc([C@H]3C[C@@H]3F)n2)cc1NC(=O)c1cnn2cc(-c3cn(C(F)F)nn3)ccc12 [Example 132-5] | 0.1 to 1 µM
10 | Cc1ncc(-c2cn(C3CC3)nn2)cc1NC(=O)c1cnn2ccc(N3CC4(C3)CC(O)(C(F)F)C4)cc12 [Example 377] | 0.1 to 1 µM
11 | Cc1ccc(-c2noc([C@H]3C[C@@H]3F)n2)cc1NC(=O)c1cnn2ccc(N3CCC4(C3)CC4(F)F)cc12 (stereo partly shown) [Example 216] | < 0.1 µM
12 | Cc1ccc(-c2noc([C@H]3C[C@@H]3F)n2)cc1NC(=O)c1cnn2ccc(-c3c(C)nc(N)nc3C)cc12 [Example 171-6] | 0.1 to 1 µM
13 | Cc1ccc(-c2noc([C@H]3C[C@@H]3F)n2)cc1NC(=O)c1cnn2ccc(N3CC(COCc4ccccc4)(C(=O)OCc4ccccc4)C3)cc12 [Example 241-13] | > 1 µM
14 | Cc1ccc(-c2noc([C@H]3C[C@@H]3F)n2)cc1NC(=O)c1cnc(-c2ccccc2)o1 [Example 85] | 0.1 to 1 µM
15 | Cc1ccc(-c2noc([C@H]3C[C@@H]3F)n2)cc1NC(=O)c1cnn2ccc(N3CC4CC(C3)O4)cc12 [Example 194] | < 0.1 µM
16 | Cc1ccc(-c2noc([C@H]3C[C@@H](OC(F)(F)F)C3)n2)cc1NC(=O)c1cnn2ccc(N3CC4CC(C3)O4)cc12 [Example 256] | < 0.1 µM
17 | Cc1ccc(-c2noc([C@H]3C[C@@H]3F)n2)cc1NC(=O)c1cnn2ccc(-c3cn(CC(C)(C)O)nn3)cc12 [Example 122] | < 0.1 µM
18 | Cc1ccc(-c2noc([C@H]3C[C@@H]3F)n2)cc1NC(=O)c1cnn2ccc(-c3cn(C45CC(F)(C4)C5)nn3)cc12 [Example 124] | < 0.1 µM

Second part, the molecule after the results:

Row | IC50 | Structure (SMILES)
19 | < 0.1 µM | Cc1ncc(-c2noc([C@H]3C[C@H](C(F)(F)F)C3)n2)cc1NC(=O)c1cnn2ccc(N3CC4(C3)CC(O)(C(F)F)C4)cc12 [Example 281-68]
20 | < 0.1 µM | COC(=O)N1CCC(c2nc(-c3ccc(C)c(NC(=O)c4cnn5ccc(N6CC7(COC7)C6)cc45)c3)no2)CC1 [Example 281-132]
21 | > 1 µM | Cc1ncc(-c2nnn(CC(F)(F)F)n2)cc1NC(=O)c1cnn2ccc(N3CC4(C3)CC(O)(C(F)F)C4)cc12 [Example 312-5]
22 | 0.1 to 1 µM | Cc1sc(-c2noc(C3CN(C(=O)C4(F)CC4)C3)n2)cc1NC(=O)c1cnn2ccc(N3CC4(COC4)C3)cc12 [Example 281-128]
23 | 0.1 to 1 µM | Cc1ncc(-c2noc([C@H]3C[C@](O)(C(F)F)C3)n2)cc1NC(=O)c1cnn2ccc(N3CC4(C3)CC(O)(C(F)F)C4)cc12 [Example 281-37]
24 | > 1 µM | Cc1ccc(-c2noc(C3CN(C(=O)OCc4ccccc4)C3)n2)cc1NC(=O)c1cnc(-c2ccc3c(c2)CC(=O)N3)o1 [Example 308-60]
25 | 0.1 to 1 µM | O=C(Nc1cc(-c2noc(N3CC(F)(F)C3)n2)ccc1Cl)c1cnn2ccc(N3CC4(COC4)C3)cc12 [Example 281-124]
26 | 0.1 to 1 µM | Cc1ccc(-c2noc([C@H]3C[C@@H]3F)n2)cc1NC(=O)c1cnc(-c2ccc3c(c2)OC(C)(C)C(=O)N3)o1 [Example 308-25]

What follows are molecules tested on M-07e cells (assay: M-07e cellular assay (SCF-mediated cell proliferation)). Settings: Homo sapiens, 72 hours, CellTiter Glo.
Type: cell-based
In short: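 EC50 values reflect inhibition of SCF-driven proliferation, with SCF at EC90 and a 72 h compound exposure, measured as CellTiter Glo luminescence. Growth is scaled between no-SCF (0%) and untreated (100%) wells.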

Row | Structure (SMILES) | EC50
27 | Cc1ccc(-c2noc([C@H]3C[C@@H]3F)n2)cc1NC(=O)c1cnc(N2CCC3(CCC(=O)N3)CC2)s1 [Example 98-8] | > 1 µM
28 | Cc1ccc(-c2noc([C@H]3C[C@@H]3F)n2)cc1NC(=O)c1cnn2ccc(-c3c(C)nc(N4CC5(COC5)C4)nc3C)cc12 [Example 171-14] | 0.1 to 1 µM
29 | Cc1ccc(-c2noc([C@H]3C[C@@H]3F)n2)cc1NC(=O)c1cnn2cc(F)c(Br)cc12 [Example 62] | > 1 µM
30 | Cc1ccc(-c2ncc(OC(F)F)cn2)cc1NC(=O)c1cnn2ccc(-c3c(C)nc(N)nc3C)cc12 [Example 366] | 0.1 to 1 µM
31 | Cc1ccc(-c2noc([C@H]3C[C@@H]3F)n2)cc1NC(=O)c1cnc(C)n1C [Example 4] | > 1 µM
32 | Cc1ccc(-c2noc([C@H]3C[C@@H]3F)n2)cc1NC(=O)c1cnn2ccc(N3CC[C@H](NC(=O)OC(C)(C)C)C3)cc12 [Example 193] | 0.1 to 1 µM
33 | Cc1ccc(-c2noc([C@H]3C[C@@H]3F)n2)cc1NC(=O)c1cnn2ccc(N3CCN(C(=O)C4CC4)[C@H](C)C3)cc12 [Example 241-5] | < 0.1 µM
34 | Cc1ncc(-c2noc([C@H]3C[C@H](C(F)(F)F)C3)n2)cc1NC(=O)c1cnn2ccc(N3CC4(C3)CC(O)(C(F)F)C4)cc12 [Example 281-68] | < 0.1 µM
35 | Cc1ccc(-c2nc3n(n2)CCN(C(=O)OC(C)(C)C)C3)cc1NC(=O)c1cnn2ccc(N3CC4(C3)CC(O)(C(F)F)C4)cc12 [Example 322] | 0.1 to 1 µM
36 | COC(=O)N1CCC(c2nc(-c3ccc(C)c(NC(=O)c4cnn5ccc(N6CC7(COC7)C6)cc45)c3)no2)CC1 [Example 281-132] | < 0.1 µM
37 | Cc1ncc(-c2noc([C@H]3C[C@@H]3F)n2)cc1NC(=O)c1cnn2cc(-c3cn(C(F)F)nn3)ccc12 [Example 132-5] | < 0.1 µM
38 | Cc1ncc(-c2nnn(CC(F)(F)F)n2)cc1NC(=O)c1cnn2ccc(N3CC4(C3)CC(O)(C(F)F)C4)cc12 [Example 312-5] | < 0.1 µM
39 | Cc1ncc(-c2cn(C3CC3)nn2)cc1NC(=O)c1cnn2ccc(N3CC4(C3)CC(O)(C(F)F)C4)cc12 [Example 377] | < 0.1 µM
40 | Cc1ccc(-c2noc([C@H]3C[C@@H]3F)n2)cc1NC(=O)c1cnn2ccc(N3CCC4(C3)CC4(F)F)cc12 (stereo partly shown) [Example 216] | < 0.1 µM
41 | Cc1sc(-c2noc(C3CN(C(=O)C4(F)CC4)C3)n2)cc1NC(=O)c1cnn2ccc(N3CC4(COC4)C3)cc12 [Example 281-128] | 0.1 to 1 µM
42 | Cc1ncc(-c2noc([C@H]3C[C@](O)(C(F)F)C3)n2)cc1NC(=O)c1cnn2ccc(N3CC4(C3)CC(O)(C(F)F)C4)cc12 [Example 281-37] | 0.1 to 1 µM
43 | Cc1ccc(-c2noc([C@H]3C[C@@H]3F)n2)cc1NC(=O)c1cnn2ccc(-c3c(C)nc(N)nc3C)cc12 [Example 171-6] | < 0.1 µM
44 | Cc1ccc(-c2noc([C@H]3C[C@@H]3F)n2)cc1NC(=O)c1cnn2ccc(N3CC(COCc4ccccc4)(C(=O)OCc4ccccc4)C3)cc12 [Example 241-13] | > 1 µM
45 | Cc1ccc(-c2noc(C3CN(C(=O)OCc4ccccc4)C3)n2)cc1NC(=O)c1cnc(-c2ccc3c(c2)CC(=O)N3)o1 [Example 308-60] | > 1 µM
46 | Cc1ccc(-c2noc([C@H]3C[C@@H]3F)n2)cc1NC(=O)c1cnc(-c2ccccc2)o1 [Example 85] | 0.1 to 1 µM
47 | Cc1ccc(-c2noc([C@H]3C[C@@H]3F)n2)cc1NC(=O)c1cnn2ccc(N3CC4CC(C3)O4)cc12 [Example 194] | < 0.1 µM
48 | Cc1ccc(-c2noc([C@H]3C[C@@H](OC(F)(F)F)C3)n2)cc1NC(=O)c1cnn2ccc(N3CC4CC(C3)O4)cc12 [Example 256] | < 0.1 µM
49 | O=C(Nc1cc(-c2noc(N3CC(F)(F)C3)n2)ccc1Cl)c1cnn2ccc(N3CC4(COC4)C3)cc12 [Example 281-124] | < 0.1 µM
50 | Cc1ccc(-c2noc([C@H]3C[C@@H]3F)n2)cc1NC(=O)c1cnc(-c2ccc3c(c2)OC(C)(C)C(=O)N3)o1 [Example 308-25] | 0.1 to 1 µM
51 | Cc1ccc(-c2noc([C@H]3C[C@@H]3F)n2)cc1NC(=O)c1cnn2ccc(-c3cn(CC(C)(C)O)nn3)cc12 [Example 122] | < 0.1 µM
52 | Cc1ccc(-c2noc([C@H]3C[C@@H]3F)n2)cc1NC(=O)c1cnn2ccc(-c3cn(C45CC(F)(C4)C5)nn3)cc12 [Example 124] | < 0.1 µM
